Experimental data taken from patent US20250235427A1, “5-METHOXY-N,N-[…][…] THE TREATMENT OF SOCIAL/EMOTIONAL […] DETACHMENT” (GH RESEARCH IRELAND LIMITED, priority 2022, published 2025).

System: patients with postpartum depression (PPD)
Assay: Clinical trial, inhaled 5-MeO-DMT individualized dosing regimen in postpartum depression (one patient so far)
Experimental: The single-arm, open-label clinical trial will involve 15 adult female patients with clinically diagnosed postpartum depression (PPD).
The second dose (12 mg) will only be administered if: • a. […] The 6 mg dose was safe and well-tolerated according to the investigator, • c. Any psychoactive effects (PsE) of the prior dose have subsided, and • d. Pre-dose vital parameters and forced expiratory volume in one second (FEV1) are in normal range, or if outside of the normal range, are not clinically significant according to the investigator. • 3. Similarly, a third dose (18 mg) will only be administered if: • a. […] The 12 mg dose was safe and well-tolerated according to the investigator, and • c. Any PsE of the prior dose have subsided, and • d. Pre-dose vital parameters and forced expiratory volume in one second (FEV1) are in normal range, or if outside of the normal range, are not clinically significant according to the investigator.
The patients will be assessed for a peak psychedelic experience (based on a patient-scored visual analogue scale, the PE scale), sedation, and other endpoints after dosing. Follow-up visits are planned for Day 1, and Day 7 after the dosing day.

COc1ccc2[nH]cc(CCN(C)C)c2c1 [5-MeO-DMT]
BPRS Disorientation score (Day 7, baseline 1): 1
BPRS Grandiosity improvement (Day 7, baseline 1): 0
BPRS Grandiosity score (Day 7, baseline 1): 1
BPRS Hallucinatory behaviour improvement (Day 7, baseline 1): 0
BPRS Hallucinatory behaviour score (Day 7, baseline 1): 1
BPRS Hostility improvement (Day 7, baseline 1): 0
BPRS Hostility score (Day 7, baseline 1): 1
BPRS Mannerisms and Posturing improvement (Day 7, baseline 1): 0
BPRS Mannerisms and Posturing score (Day 7, baseline 1): 1
BPRS Motor retardation improvement (Day 7, baseline 1): 0
BPRS Motor retardation score (Day 7, baseline 1): 1
BPRS Suspiciousness improvement (Day 7, baseline 1): 0
BPRS Suspiciousness score (Day 7, baseline 1): 1
BPRS Uncooperativeness improvement (Day 7, baseline 1): 0
BPRS Uncooperativeness score (Day 7, baseline 1): 1
BPRS Unusual Thought Content improvement (Day 7, baseline 1): 0
BPRS Unusual Thought Content score (Day 7, baseline 1): 1
BPRS Excitement improvement (Day 7, baseline 2): 1
BPRS Excitement score (Day 7, baseline 2): 1
MADRS Inability to Feel improvement (Day 7, baseline 3): 3
MADRS Inability to Feel score (Day 7, baseline 3): 0
MADRS Lassitude improvement (Day 7, baseline 3): 3
MADRS Lassitude score (Day 7, baseline 3): 0
MADRS Pessimistic Thoughts improvement (Day 7, baseline 4): 4
MADRS Pessimistic Thoughts score (Day 7, baseline 4): 0
MADRS Reported sadness improvement (Day 7, baseline 4): 4
MADRS Reported sadness score (Day 7, baseline 4): 0
BPRS Emotional withdrawal improvement (Day 7, baseline 5): 4
BPRS Emotional withdrawal score (Day 7, baseline 5): 1
MADRS Apparent sadness improvement (Day 7, baseline 5): 5
MADRS Apparent sadness score (Day 7, baseline 5): 0
MADRS Inner Tension improvement (Day 7, baseline 5): 4
MADRS Inner Tension score (Day 7, baseline 5): 1
MADRS Reduced Sleep improvement (Day 7, baseline 5): 5
MADRS Reduced Sleep score (Day 7, baseline 5): 0
BPRS Depressive Mood improvement (Day 7, baseline 6): 5
BPRS Depressive Mood score (Day 7, baseline 6): 1
BPRS Guilt feelings improvement (Day 7, baseline 6): 5
BPRS Guilt feelings score (Day 7, baseline 6): 1
BPRS Somatic Concern improvement (Day 7, baseline 6): 5
BPRS Somatic Concern score (Day 7, baseline 6): 1
BPRS Tension improvement (Day 7, baseline 6): 5
BPRS Tension score (Day 7, baseline 6): 1
BPRS Anxiety improvement (Day 7, baseline 7): 6
BPRS Anxiety score (Day 7, baseline 7): 1
BIMF functional domain Adjustment Δ (Day 7) (Day 7 vs Day 0): 1
BIMF functional domain Infant Care Δ (Day 7) (Day 7 vs Day 0): 0
BIMF functional domain Management Δ (Day 7) (Day 7 vs Day 0): 5
BIMF functional domain Mother-Child Interaction Δ (Day 7) (Day 7 vs Day 0): 2
BIMF functional domain Psychological Well-being Δ (Day 7) (Day 7 vs Day 0): 9
BIMF functional domain Self Care Δ (Day 7) (Day 7 vs Day 0): 4
BIMF functional domain Social Support Δ (Day 7) (Day 7 vs Day 0): 1
BIMF item 1 (I am a good mother) Δ (Day 7) (Day 7 vs Day 0): 0
BIMF item 2 (I feel rested) Δ (Day 7) (Day 7 vs Day 0): 2
BIMF item 3 (I am comfortable with the way I've chosen to feed my baby) Δ (Day 7) (Day 7 vs Day 0): 0
BIMF item 4 (My baby and I understand each other) Δ (Day 7) (Day 7 vs Day 0): 0
BIMF item 5 (I am able to relax and enjoy time with my baby) Δ (Day 7) (Day 7 vs Day 0): 1
BIMF item 6 (There are people in my life that I can trust to care for my baby when I need a break) Δ (Day 7) (Day 7 vs Day 0): 0
BIMF item 8 (I am getting enough adult interaction) Δ (Day 7) (Day 7 vs Day 0): 0
BIMF item 9 (I am getting enough encouragement from other people) Δ (Day 7) (Day 7 vs Day 0): 1
BIMF item 10 (I trust my own feelings (instincts) when it comes to taking care of my baby) Δ (Day 7) (Day 7 vs Day 0): 1
BIMF item 11 (I take a little time each week to do something for myself) Δ (Day 7) (Day 7 vs Day 0): 1
BIMF item 12 (I am taking good care of my baby's physical needs) Δ (Day 7) (Day 7 vs Day 0): 0
BIMF item 13 (I am taking good care of my physical needs) Δ (Day 7) (Day 7 vs Day 0): 1
BIMF item 14 (I make good decisions about my baby's health and well being) Δ (Day 7) (Day 7 vs Day 0): 0
BIMF item 15 (My baby and I are getting into a routine) Δ (Day 7) (Day 7 vs Day 0): 1
BIMF item 16 (I worry about how other people judge me (as a mother)) Δ (Day 7) (Day 7 vs Day 0): 2
BIMF item 17 (I am able to take care of my baby and my other responsibilities) Δ (Day 7) (Day 7 vs Day 0): 0
BIMF item 18 (Anxiety or worry often interferes with my mothering ability) Δ (Day 7) (Day 7 vs Day 0): 3
BIMF item 19 (As time goes on, I am getting better at taking care of my baby) Δ (Day 7) (Day 7 vs Day 0): 1
BIMF item 20 (I am satisfied with the job I am doing as a new mother) Δ (Day 7) (Day 7 vs Day 0): −1
BPRS Blunted affect improvement (Discharge, baseline 1): 0
BPRS Blunted affect score (Discharge, baseline 1): 1
BPRS Conceptual disorganization improvement (Discharge, baseline 1): 0
BPRS Conceptual disorganization score (Discharge, baseline 1): 1
BPRS Disorientation improvement (Discharge, baseline 1): 0
BPRS Disorientation score (Discharge, baseline 1): 1
BPRS Grandiosity improvement (Discharge, baseline 1): 0
BPRS Grandiosity score (Discharge, baseline 1): 1
BPRS Hallucinatory behaviour improvement (Discharge, baseline 1): 0
BPRS Hallucinatory behaviour score (Discharge, baseline 1): 1
BPRS Hostility improvement (Discharge, baseline 1): 0
BPRS Hostility score (Discharge, baseline 1): 1
BPRS Mannerisms and Posturing improvement (Discharge, baseline 1): 0
BPRS Mannerisms and Posturing score (Discharge, baseline 1): 1
BPRS Motor retardation improvement (Discharge, baseline 1): 0
BPRS Motor retardation score (Discharge, baseline 1): 1
BPRS Suspiciousness improvement (Discharge, baseline 1): 0
BPRS Suspiciousness score (Discharge, baseline 1): 1
BPRS Uncooperativeness improvement (Discharge, baseline 1): 0
BPRS Uncooperativeness score (Discharge, baseline 1): 1
BPRS Unusual Thought Content improvement (Discharge, baseline 1): 0
BPRS Unusual Thought Content score (Discharge, baseline 1): 1
BPRS Excitement improvement (Discharge, baseline 2): 1
BPRS Excitement score (Discharge, baseline 2): 1
BPRS Emotional withdrawal improvement (Discharge, baseline 5): 4
BPRS Emotional withdrawal score (Discharge, baseline 5): 1
BPRS Depressive Mood improvement (Discharge, baseline 6): 5
BPRS Depressive Mood score (Discharge, baseline 6): 1
BPRS Guilt feelings improvement (Discharge, baseline 6): 5
BPRS Guilt feelings score (Discharge, baseline 6): 1
BPRS Somatic Concern improvement (Discharge, baseline 6): 5
BPRS Somatic Concern score (Discharge, baseline 6): 1
BPRS Tension score (Discharge, baseline 6): 1
BPRS Anxiety improvement (Discharge, baseline 7): 6
BPRS Anxiety score (Discharge, baseline 7): 1
ECG, safety laboratory analyses, CADSS (ECG 3 hours, laboratory 7 days, CADSS 3 hours, 1 day and 7 days): unremarkable
changes in vital parameters (shortly after administration): temporary, clinically non-relevant increase in heart rate and blood pressure
